The target of data set [1] is T1, Keap1 (His/GST) (Homo sapiens, UniProt Q14145). Nature of the data set: Keap1 TR-FRET Assay 3 (CDDO-FITC/Tb-Anti-6xHis). It is filed as binding.
For data set [2], the target named is T2, WT Keap1 (tag-free, full-length) (Homo sapiens, UniProt Q14145). As to the kind of experiment: biochemical. Particulars: read-out: Assay 1: % at 100.
Data set [3] concerns the target T2, WT Keap1 (tag-free, full-length). As to the kind of experiment: biochemical.
For data set [4], the target named is T1, Keap1 (His/GST). As to the kind of experiment: biochemical.
The target in data set [5] is T3, MtbPheRS (Mycobacterium tuberculosis phenylalanyl-tRNA synthetase) (Mycobacterium tuberculosis, UniProt P9WFU3).
T3 construct: made in house; host or cells: Mycobacterium
T3 sequence (P9WFU3 whole entry): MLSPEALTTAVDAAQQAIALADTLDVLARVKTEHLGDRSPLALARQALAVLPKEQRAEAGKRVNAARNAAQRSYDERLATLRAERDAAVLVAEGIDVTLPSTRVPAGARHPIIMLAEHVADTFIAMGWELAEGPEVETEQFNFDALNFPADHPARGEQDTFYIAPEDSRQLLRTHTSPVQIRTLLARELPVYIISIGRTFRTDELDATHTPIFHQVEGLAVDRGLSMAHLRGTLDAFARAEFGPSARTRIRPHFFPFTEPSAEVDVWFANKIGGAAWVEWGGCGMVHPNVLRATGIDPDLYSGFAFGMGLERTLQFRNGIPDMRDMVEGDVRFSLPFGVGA
T3 sequence (P9WFU1 whole entry, further chain): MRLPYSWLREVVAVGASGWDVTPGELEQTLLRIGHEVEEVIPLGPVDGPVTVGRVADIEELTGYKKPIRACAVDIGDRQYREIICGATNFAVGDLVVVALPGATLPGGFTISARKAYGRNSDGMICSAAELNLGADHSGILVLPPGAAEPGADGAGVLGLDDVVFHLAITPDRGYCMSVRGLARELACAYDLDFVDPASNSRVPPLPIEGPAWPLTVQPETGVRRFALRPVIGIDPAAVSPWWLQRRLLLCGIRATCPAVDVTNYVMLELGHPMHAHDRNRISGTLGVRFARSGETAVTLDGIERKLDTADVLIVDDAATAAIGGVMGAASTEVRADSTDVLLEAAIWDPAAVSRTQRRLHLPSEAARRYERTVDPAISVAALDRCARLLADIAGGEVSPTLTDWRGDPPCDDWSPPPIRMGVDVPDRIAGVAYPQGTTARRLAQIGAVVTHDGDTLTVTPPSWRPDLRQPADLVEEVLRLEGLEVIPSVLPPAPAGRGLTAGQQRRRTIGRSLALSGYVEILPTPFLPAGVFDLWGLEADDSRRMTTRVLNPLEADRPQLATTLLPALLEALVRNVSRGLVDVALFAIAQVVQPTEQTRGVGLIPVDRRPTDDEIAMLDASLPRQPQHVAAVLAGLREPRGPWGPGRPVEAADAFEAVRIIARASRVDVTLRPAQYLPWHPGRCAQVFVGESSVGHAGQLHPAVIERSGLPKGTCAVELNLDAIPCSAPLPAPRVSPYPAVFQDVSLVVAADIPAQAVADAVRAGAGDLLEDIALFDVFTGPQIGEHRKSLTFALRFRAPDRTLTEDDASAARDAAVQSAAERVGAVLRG
As to the kind of experiment: PheRS activity-based assay, MtbPheRS. It is filed as biochemical.

In data set [6] the target is T4, HscPheRS (human cytoplasmic phenylalanyl-tRNA synthetase) (Homo sapiens, UniProt Q9Y285).
T4 construct: made in house; host or cells: E. coli
T4 sequence (Q9Y285 1-508): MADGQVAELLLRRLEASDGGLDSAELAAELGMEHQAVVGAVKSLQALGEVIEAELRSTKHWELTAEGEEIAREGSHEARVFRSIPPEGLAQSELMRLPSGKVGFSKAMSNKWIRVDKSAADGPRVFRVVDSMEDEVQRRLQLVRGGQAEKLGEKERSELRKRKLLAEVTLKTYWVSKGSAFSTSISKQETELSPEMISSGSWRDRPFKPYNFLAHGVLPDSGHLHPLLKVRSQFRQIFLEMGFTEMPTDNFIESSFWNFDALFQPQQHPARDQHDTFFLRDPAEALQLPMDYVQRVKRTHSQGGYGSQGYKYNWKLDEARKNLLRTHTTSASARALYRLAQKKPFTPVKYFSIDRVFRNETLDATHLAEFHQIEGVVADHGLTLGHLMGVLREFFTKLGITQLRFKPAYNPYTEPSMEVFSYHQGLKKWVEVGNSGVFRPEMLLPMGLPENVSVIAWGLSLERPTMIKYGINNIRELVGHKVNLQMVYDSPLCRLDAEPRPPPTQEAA
T4 sequence (Q9NSD9 1-589 partner): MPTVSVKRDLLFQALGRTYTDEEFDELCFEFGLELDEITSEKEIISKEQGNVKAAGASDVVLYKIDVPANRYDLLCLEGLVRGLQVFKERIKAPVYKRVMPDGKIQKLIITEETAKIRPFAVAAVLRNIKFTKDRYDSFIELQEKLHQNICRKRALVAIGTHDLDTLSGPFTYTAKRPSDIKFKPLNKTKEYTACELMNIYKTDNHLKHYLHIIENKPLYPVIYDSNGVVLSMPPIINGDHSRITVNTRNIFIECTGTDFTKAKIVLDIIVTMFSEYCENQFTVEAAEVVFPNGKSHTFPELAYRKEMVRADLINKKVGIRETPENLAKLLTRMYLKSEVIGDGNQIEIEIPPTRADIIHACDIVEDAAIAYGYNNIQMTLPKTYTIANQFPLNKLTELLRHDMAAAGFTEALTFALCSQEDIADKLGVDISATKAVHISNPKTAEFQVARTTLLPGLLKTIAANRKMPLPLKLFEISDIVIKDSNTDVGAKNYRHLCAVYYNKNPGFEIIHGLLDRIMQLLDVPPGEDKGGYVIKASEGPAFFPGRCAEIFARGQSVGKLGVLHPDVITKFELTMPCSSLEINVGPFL
Nature of the data set: PheRS activity-based assay, HscPheRS. It is filed as biochemical.

The target of a further data set is T5, PfcProRS (Plasmodium falciparum, UniProt Q8I5R7).
T5 construct: made in house; host or cells: SoluBL-21 E. coli
T5 sequence (Q8I5R7 249-746): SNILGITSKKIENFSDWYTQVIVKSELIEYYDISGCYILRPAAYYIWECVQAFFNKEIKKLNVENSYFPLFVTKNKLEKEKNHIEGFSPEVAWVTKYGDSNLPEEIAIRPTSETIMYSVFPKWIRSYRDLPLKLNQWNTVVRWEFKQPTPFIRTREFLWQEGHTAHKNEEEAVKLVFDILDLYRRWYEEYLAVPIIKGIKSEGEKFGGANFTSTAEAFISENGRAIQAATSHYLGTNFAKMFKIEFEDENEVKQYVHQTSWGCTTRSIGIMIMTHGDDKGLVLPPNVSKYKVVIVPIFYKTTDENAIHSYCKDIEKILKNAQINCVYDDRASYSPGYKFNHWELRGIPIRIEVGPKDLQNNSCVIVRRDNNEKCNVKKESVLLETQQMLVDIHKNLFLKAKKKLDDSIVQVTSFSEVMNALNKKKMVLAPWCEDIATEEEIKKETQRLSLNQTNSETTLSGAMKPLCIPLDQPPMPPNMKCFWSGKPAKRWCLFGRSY
Nature of the data set: biochemical. The following applies: PfcProRS KD, absence of substrates (0 μM ATP). It is filed as binding.

A further data set deals with T6, HsProRS (Homo sapiens, UniProt P07814).
T6 construct: made in house; host or cells: SoluBL-21 E. coli
T6 sequence (P07814 996-1512): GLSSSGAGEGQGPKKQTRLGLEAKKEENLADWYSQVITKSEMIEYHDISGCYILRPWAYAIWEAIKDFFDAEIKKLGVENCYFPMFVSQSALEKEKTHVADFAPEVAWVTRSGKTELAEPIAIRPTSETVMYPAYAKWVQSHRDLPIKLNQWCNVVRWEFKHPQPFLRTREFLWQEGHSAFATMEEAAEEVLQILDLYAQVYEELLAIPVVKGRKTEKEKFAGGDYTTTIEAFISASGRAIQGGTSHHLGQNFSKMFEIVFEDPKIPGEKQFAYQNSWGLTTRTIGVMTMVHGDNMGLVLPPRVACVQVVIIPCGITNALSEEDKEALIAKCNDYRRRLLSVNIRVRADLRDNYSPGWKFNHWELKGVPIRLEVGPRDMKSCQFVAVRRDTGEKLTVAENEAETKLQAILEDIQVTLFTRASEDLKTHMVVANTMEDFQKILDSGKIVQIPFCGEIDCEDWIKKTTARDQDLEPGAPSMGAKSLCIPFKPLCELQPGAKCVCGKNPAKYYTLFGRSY
As to the kind of experiment: TR-FRET ProRS ligand displacement / saturation binding assay, HsProRS. Particulars: absence of substrates; read-out: HsProRS (KD [nM]) −.

A further data set addresses T7, HsGluProRS (Homo sapiens, UniProt P07814).
T7 construct: assay was developed utilizing native proteins in cell lysate or intact cells; endogenous in cells
Nature of the data set: HsGluProRS TR-FRET in HEK293 lysate. It is filed as binding. The following applies: 250 nM tracer, serially diluted HEK293T lysate, anti-HsGluProRS antibodies. The text has this:
Freshly prepared HEK293 cell lysates were serial diluted into flat-bottom, white 384-well plates (Corning 3572).
Abcam ab31531 was raised against an Abcam-proprietary, recombinant, full-length HsGluProRS protein. Proteintech 67712-1-Ig was raised against a peptide encoding HsGluProRS residues 1163-1512. Cell Signaling Technology CST45956 was raised against a peptide encoding residues surrounding HsGluProRS^P978. CTK0101 (ChromTek) anti-Rabbit-IgG secondary nanobody (single domain nanobody) was previously labeled with CoraFluor-1-Pfp and validated to bind Rabbit IgG antibodies with high affinity.
For the TR-FRET assay, HEK293T lysate was serially diluted into 384-well plates containing constant concentrations of tracer (either 250 nM MAT574 for ProRS or 250 nM MAT579 for GluRS), one of the antibodies (5 nM), and for the unlabeled antibodies, CoraFluor-1-Pfp labeled nano secondary (20 nM).
For orientation: TR-FRET usually uses a lanthanide donor and a delayed reading to cut background.

For data set [7] the following is noted: pH 7.4, 1-octanol / sodium phosphate buffer.
Data set [8] has as its target T2, WT Keap1 (tag-free, full-length). Nature of the data set: Keap1 TR-FRET Assay 2 (CDDO-FITC/Cora-1-KL9).

The record followed here is US20250093263A1, “FRET-BASED ASSAYS” (The General Hospital Corporation, priority 2021, published 2025).

Values joined by “and” are separate entries in the source; they are usually repeats but may differ in a detail not shown here. Identical values can stand only once. Counter-ions that a name gives are not always drawn. Like-named read-outs stand apart in the source and are kept apart here.

T2 sequence (Q14145 whole entry): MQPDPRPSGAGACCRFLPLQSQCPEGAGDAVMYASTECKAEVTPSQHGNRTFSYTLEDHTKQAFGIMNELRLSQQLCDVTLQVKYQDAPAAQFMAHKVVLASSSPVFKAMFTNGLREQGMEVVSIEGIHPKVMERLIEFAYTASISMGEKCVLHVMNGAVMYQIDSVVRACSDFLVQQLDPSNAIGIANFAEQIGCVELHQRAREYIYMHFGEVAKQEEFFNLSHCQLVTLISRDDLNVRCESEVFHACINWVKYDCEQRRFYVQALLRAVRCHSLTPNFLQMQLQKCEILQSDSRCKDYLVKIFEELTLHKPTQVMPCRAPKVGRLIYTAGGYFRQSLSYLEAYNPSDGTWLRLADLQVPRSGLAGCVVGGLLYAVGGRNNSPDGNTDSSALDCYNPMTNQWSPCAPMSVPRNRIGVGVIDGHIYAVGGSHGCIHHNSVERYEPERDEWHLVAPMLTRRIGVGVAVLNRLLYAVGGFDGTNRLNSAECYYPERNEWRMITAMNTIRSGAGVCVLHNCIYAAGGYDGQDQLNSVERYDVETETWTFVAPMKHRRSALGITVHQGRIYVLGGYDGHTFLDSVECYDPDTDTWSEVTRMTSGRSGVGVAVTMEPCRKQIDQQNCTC
T1 sequence (Q14145 whole entry): as above
T7 sequence (P07814 whole entry): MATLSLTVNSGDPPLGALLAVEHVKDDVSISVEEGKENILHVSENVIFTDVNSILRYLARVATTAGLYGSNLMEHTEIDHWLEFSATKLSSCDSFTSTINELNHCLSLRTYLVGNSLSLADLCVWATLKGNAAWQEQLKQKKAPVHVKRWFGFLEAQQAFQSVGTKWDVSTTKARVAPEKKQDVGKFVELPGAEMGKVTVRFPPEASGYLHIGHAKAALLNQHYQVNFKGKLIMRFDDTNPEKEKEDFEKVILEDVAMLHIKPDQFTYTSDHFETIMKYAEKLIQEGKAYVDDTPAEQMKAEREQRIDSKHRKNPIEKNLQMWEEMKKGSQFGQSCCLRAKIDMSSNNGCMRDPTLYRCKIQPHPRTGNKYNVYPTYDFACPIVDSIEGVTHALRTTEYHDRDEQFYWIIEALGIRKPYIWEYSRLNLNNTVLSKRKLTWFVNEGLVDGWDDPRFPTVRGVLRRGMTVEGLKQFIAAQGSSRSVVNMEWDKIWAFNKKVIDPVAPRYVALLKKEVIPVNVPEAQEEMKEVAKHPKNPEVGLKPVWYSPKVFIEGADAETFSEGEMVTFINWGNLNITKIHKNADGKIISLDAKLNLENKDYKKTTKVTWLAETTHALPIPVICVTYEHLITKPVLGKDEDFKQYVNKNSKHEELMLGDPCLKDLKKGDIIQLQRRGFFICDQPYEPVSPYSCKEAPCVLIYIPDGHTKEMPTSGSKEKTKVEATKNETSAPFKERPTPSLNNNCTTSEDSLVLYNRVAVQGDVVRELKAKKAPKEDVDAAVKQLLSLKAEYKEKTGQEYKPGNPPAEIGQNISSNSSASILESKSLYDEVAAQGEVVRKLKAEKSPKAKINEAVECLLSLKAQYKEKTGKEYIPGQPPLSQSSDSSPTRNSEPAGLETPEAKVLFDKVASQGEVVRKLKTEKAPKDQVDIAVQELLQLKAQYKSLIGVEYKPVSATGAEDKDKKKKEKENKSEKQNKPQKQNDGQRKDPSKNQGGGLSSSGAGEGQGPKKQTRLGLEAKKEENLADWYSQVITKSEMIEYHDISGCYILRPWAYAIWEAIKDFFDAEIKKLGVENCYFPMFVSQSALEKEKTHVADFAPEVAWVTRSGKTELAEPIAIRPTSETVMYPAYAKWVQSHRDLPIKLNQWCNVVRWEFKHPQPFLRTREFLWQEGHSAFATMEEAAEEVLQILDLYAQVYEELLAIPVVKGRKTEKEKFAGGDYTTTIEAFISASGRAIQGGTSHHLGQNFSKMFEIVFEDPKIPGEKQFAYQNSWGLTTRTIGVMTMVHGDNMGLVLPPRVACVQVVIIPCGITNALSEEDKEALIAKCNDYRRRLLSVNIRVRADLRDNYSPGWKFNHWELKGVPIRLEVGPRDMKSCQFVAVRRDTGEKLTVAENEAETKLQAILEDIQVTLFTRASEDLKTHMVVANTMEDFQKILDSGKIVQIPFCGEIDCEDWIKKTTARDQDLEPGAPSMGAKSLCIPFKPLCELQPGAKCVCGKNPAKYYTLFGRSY
Experimental for HsProRS: (§1) A stock solution containing CoraFluor-1-Halo-labeled HT-PfcProRS or CoraFluor-1-Halo-labeled HT-HsProRS at the concentration specified for each experiment was prepared in assay buffer (50 mM Tris, pH 7.5, 20 mM KCl, 10 mM MgCl2, 0.05% Tween-20, 1 mM dithiothreitol, and 0.5 mg/mL BSA). […] Plates were mixed on an Ika MTS 2/4 Digital Microtiter Shaker at 750 rpm for 2 min, centrifuged at 1,000×g at 25° C. for 1 min. and allowed to equilibrate at room temperature for 2 h before TR-FRET measurements were taken. […] PRISM 9 (GraphPad) was used to perform non-linear regression analysis (one site—specific binding), plot dose-response curves, and calculate KD values.
(§2) A Multidrop Combi Reagent Dispenser (ThermoFisher Scientific) was used to dispense 20 μL of 2× protein solution into each well. […] Plates were mixed on an Ika MTS 2/4 Digital Microtiter Shaker at 750 rpm for 2 min, centrifuged at 1,000×g at 25° C. for I min, and allowed to equilibrate for 2 h at room temperature before TR-FRET measurements were taken.
(§3) PRISM 9 (GraphPad) was used to perform non-linear regression analysis (log(inhibitor) vs. response—Variable slope (four parameters)), plot dose-response curves, and calculate iC50 values.
(§4) Test compounds were dispensed in duplicate, triplicate, or sextuplicate dose-response format using a D300 digital dispenser (Hewlett Packard). […] Plates were mixed on an Ika MTS 2/4 Digital Microtiter Shaker at 750 rpm for 2 min, centrifuged at 1,000×g at 25° C. for 1 min, and allowed to equilibrate for 2 h at room temperature.
(§5) GraphPad PRISM was used to perform non-linear regression (log(inhibitor) vs. response—Variable slope (four parameters)), plot dose-response curves, and calculate IC50 values.
(§6) This assay was generally conducted in the same manner as the CoraFluor-1-Halo format with minor differences. […] Each well was supplemented with 1 nM CoraFluor-1-Pfp-labeled anti-His6 antibody before the 2 h incubation.
(§7) TR-FRET measurements were acquired in kinetic mode (1 read every ˜45 s) for at least 10 min.
Experimental for PfcProRS: as §1, §2, §3, §4, §5, §6, §7

Take `COC(=O)/C=C/C(=O)OC` [DMF, dimethyl fumarate]: the IC50 was found to be 64.8 µM against Keap1 (His/GST) [1], 129 µM in data set [3] and 266 µM against Keap1 (His/GST) [4]. Further, the inhibition at 100 µM in [2] is under 5%. Moreover, the Kd in data set [3] was found to be 67.4 µM.
Consider `Nc1ncnc2c1ncn2[C@@H]1O[C@H](CNS(=O)(=O)NC(=O)[C@@H](N)Cc2ccccc2)[C@@H](O)[C@H]1O` [PheSNA, (S)-amino-N-(N-(((2R,3S,4R,5R)-5-(6-amino-9H-purin-9-yl)-3,4-dihydroxytetrahydrofuran-2-y)methyl)sulfamoyl)-3-phenylpropanamide], for which the IC50 worked out at 2 µM in data set [5] and 0.14 µM in data set [6].
Turning to `Nc1ncnc2c1ncn2[C@@H]1O[C@H](CN(CCCCCCOCCOCCNC(=O)c2ccc(C(=O)O)c(-c3c4ccc(=O)cc-4oc4cc(O)ccc34)c2)S(=O)(=O)NC(=O)[C@@H]2CCCN2)[C@@H](O)[C@H]1O` [MAT574, 4-((2-(2-((6-((N-(L-prolyl)sulfamoyl)(((2R,3S4R,5R)-5-(6-amino-9H-purin-9-yl)-3,4-dihydroxytetrahydrofuran-2-yl)methyl)amino)hexyl)oxy)ethoxy)ethyl)carbamoyl)-2-(6-hydroxy-3-oxo-3H-xanthen-9-yl)benzoic acid], the Kd at PfcProRS is 2.27 µM; on HsProRS it was 72.2 nM. For the same molecule, the “TR-FRET signal” value at HsGluProRS is “specific TR-FRET signal”.
For `O=C(CCCCCN1CCN2CCNC(=O)c3cc(Cl)cc(c3[O-])C(=O)NCCN(CCNC(=O)c3cc(Cl)cc(c3[O-])C1=O)CCN1CCNC(=O)c3cc(Cl)cc(c3[O-])C(=O)NCCN(CCNC(=O)c3cc(Cl)cc(c3[O-])C(=O)NCC1)CC2)NCCOCCOCCCCCCCl.[Tb+3]` [Cora-2-Halo], in data set [7], the “log D” value was 0.7.
As for `Cc1sc2c(c1C)C(c1ccc(Cl)cc1)=NC(CC(=O)NCCCOCCOCCOCCCNC(=O)[C@]13CCC(C)(C)C[C@H]1[C@H]1C(=O)C=C4[C@@]5(C)C=C(C#N)C(=O)C(C)(C)[C@@H]5CC[C@@]4(C)[C@]1(C)CC3)c1nnc(C)n1-2` (stereo partly drawn) [CDDO-JQ1, (4aS,6aR,6bS,8aR,12aS,14aR,14bS)-N-(1-(4-(4-chlorophenyl)-2,3,9-trimethyl-6H-thieno[3,2-f][1,2,4]triazolo[4,3-a][1,4]diazepin-6-yl)-2-oxo-7,10,13-trioxa-3-azahexadecan-16-yl)-11-cyano-2,2,6a,6b,9,9,12a-heptamethyl-10,14-dioxo-1,3,4,5,6,6a,6b,7,8,8a,9,10,12a,14,14a,14b-hexadecahydropicene-4a(2H)-carboxamide], the IC50 was found to be 2.68 µM against Keap1 (His/GST) [1], 3.37 µM in data set [3] and 495 µM on Keap1 (His/GST) [4]. For the same molecule, the inhibition at 100 µM in data set [2] is under 5%. The same molecule returned a Kd in data set [3] of 1.77 µM. The “fold less potent than CDDO (CDDO/CDDO-Me)” value in data set [8] (Assay-2) is > 250 fold and > 500 fold.
Take `COC(=O)[C@]12CCC(C)(C)C[C@H]1[C@H]1C(=O)C=C3[C@@]4(C)C=C(C#N)C(=O)C(C)(C)[C@@H]4CC[C@@]3(C)[C@]1(C)CC2` [CDDO-Me, bardoxolone methyl]: the figures for the IC50 (against Keap1 (His/GST) [1]; in data set [3]; at Keap1 (His/GST) [4]) were 0.011 µM, 0.024 µM and 103 µM, respectively. In data set [2], the inhibition at 100 µM was under 10%. The same molecule returned a Kd in data set [3] of 0.013 µM.
Consider `Nc1ncnc2c1ncn2[C@@H]1O[C@H](CN(CCCCCCOCCOCCNC(=O)c2ccc(C(=O)O)c(-c3c4ccc(=O)cc-4oc4cc(O)ccc34)c2)S(=O)(=O)NC(=O)[C@@H](N)CCC(=O)O)[C@@H](O)[C@H]1O` [MAT579, 4-((2-(2-((6-((N-(L-glutamyl)sulfamoyl)(((2R,3S,4R,5R)-5-(6-amino-9H-purin-9-yl)-3,4-dihydroxytetrahydrofuran-2-yl)methyl)amino)hexyl)oxy)ethoxy)ethyl)carbamoyl)-2-(6-hydroxy-3-oxo-3H-xanthen-9-yl)benzoic acid], for which the “TR-FRET signal” value at HsGluProRS was “No TR-FRET signal was observed”.
“(S)-2-amino-N-(N-(((2R,3S,4R,5R)-S-(6-amino-9H-purin-9-yl)-3,4-dihydroxytetrahydrofuran-2-yl)methyl)-N-(6-(2-(2-aminoethoxy)ethoxy)hexyl)sulfamoyl)-3-phenylpropanamide [MAT581]”: 206 µM corresponded to half-maximal inhibition in data set [5] (phenylalanine 100 μM, ATP 200 μM) (IC50).
Consider `CC1(C)CC[C@]2(C(=O)NCCCOCCOCCOCCCNC(=S)Nc3ccc(-c4c5ccc(=O)cc-5oc5cc(O)ccc45)c(C(=O)O)c3)CC[C@]3(C)[C@H](C(=O)C=C4[C@@]5(C)C=C(C#N)C(=O)C(C)(C)[C@@H]5CC[C@]43C)[C@@H]2C1` [CDDO-FITC, 5-(3-(1-((4aS,6aR,6bS,8aR,12aS,14aR,14bS)-11-cyano-2,2,6a,6b,9,9,12a-heptamethyl-10,14-dioxo-1,3,4,5,6,6a,6b,7,8,8a,9,10,12a,14,14a,14b-hexadecahydropicen-4a(2H)-yl)-1-oxo-6,9,12-trioxa-2-azapentadecan-15-yl)thioureido)-2-(6-hydroxy-3-oxo-3H-xanthen-9-yl)benzoic acid], for which the Kd was determined as 0.164 µM in data set [3]; 0.164 ± 0.0371 µM in [8] (Kd of CDDO-FITC, saturation binding at fixed Cora-1-KL9 and Keap1, one-site model).
In the case of `O=C(CCCCCN1CCN2CCNC(=O)c3cccc(c3[O-])C(=O)NCCN(CCNC(=O)c3cccc(c3[O-])C1=O)CCN1CCNC(=O)c3cccc(c3[O-])C(=O)NCCN(CCNC(=O)c3cccc(c3[O-])C(=O)NCC1)CC2)NCCOCCOCCCCCCCl.[Tb+3]` [Cora-1-Halo], the “log D” value in [7] is reported as −0.7.

As a reminder, the IC50 is the concentration needed to halve the response being measured. Low values mean greater potency, high ones weaker potency. The term Kd denotes the constant that tells how readily two partners part at equilibrium. As a reminder, the log D is lipophilicity at a set pH, counting ionised and neutral species.
